Legend:
[1] = molecular target: T1, Human 5-HT1A Receptor (Homo sapiens, UniProt P08908); assay: 8-OH-DPAT binding, human 5-HT1A receptor cell line (displacement of [3H]-OHDPAT, stably transfected CHO cells); details: [3H]-OHDPAT 1.5 nM, read-out: h5HT1A Affinity Ki (nM) (Example 17)
T1 construct: expressed in transfected cells; host or cells: CHO cells (Chinese hamster ovary), stably transfected
T1 sequence (P08908 1-422): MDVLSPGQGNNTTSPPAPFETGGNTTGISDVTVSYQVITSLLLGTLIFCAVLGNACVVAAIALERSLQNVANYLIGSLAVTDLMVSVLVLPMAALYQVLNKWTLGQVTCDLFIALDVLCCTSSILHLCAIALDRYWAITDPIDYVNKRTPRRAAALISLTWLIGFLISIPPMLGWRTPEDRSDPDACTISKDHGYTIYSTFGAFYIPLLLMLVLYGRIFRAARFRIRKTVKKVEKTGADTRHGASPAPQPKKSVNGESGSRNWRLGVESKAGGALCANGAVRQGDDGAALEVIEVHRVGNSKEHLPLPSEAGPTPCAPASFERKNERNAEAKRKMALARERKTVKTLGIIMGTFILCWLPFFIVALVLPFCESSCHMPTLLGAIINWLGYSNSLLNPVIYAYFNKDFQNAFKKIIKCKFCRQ
Protocol: Affinity for the serotonin 5-HT1A receptor was established by testing each compound's ability to displace [^3H]-OHDPAT (dipropylaminotetralin) from the 5-HT1A serotonin receptor following a modification of the procedure of Hall et al., J. Neurochem. 44:1685-1696 (1985). Stably transfected Chinese hamster ovary (CHO) cells were plated and grown in Dulbecco's Modified Eagle's Medium (DMEM) containing 10% heat inactivated fetal bovine serum (FBS) and non-essential amino acids. Cells were scraped off the plate, transferred to centrifuge tubes, and washed twice by centrifugation (2000 rpm for 10 minutes at 4° C.) in buffer (50 mM Tris, pH 7.5). The resulting pellets were aliquoted and stored at −80° C. On the day of assay, the cells were thawed on ice, and re-suspended in buffer. The binding assay was performed in a 96-well microtiter plate in a total volume of about 250 μL. Non-specific binding was determined in the presence of 10 μM 5-HT; the final radio ligand concentration was 1.5 nM. Following a 30 minute incubation at room temperature, the reaction was terminated by the addition of ice cold buffer and rapid filtration through a GF/B filter presoaked for 30 minutes in 0.5% polyethyleneimine (PEI). Compounds were initially tested in a single point assay to determine percent inhibition at 1 μM, 0.1 μM, and 0.01 μM. Subsequently, Ki values were determined for compounds defined to be active. Percent inhibition Ki was determined by RFComp (Lundon Software, Chagrin Falls, Ohio), with serotonin and 8-OH-DPAT as the reference compounds.
High affinity for the receptor is evidence of a compound's ability to directly modulate activity at the 5-HT1A receptor.

[2] = molecular target: T1, Human 5-HT1A Receptor; assay: cAMP radioimmunoassay (RIA) in human 5-HT1A receptor cell line, inhibition of forskolin stimulated cAMP; assay type: cell-based; details: forskolin (1 μM) stimulated cAMP, stably transfected CHO cells; read-out: h5HT1A cAMP EC50 (nM) (Example 19)
Protocol: Certain effects of 5-HT (e.g., certain effects mediated by the interaction of 5-HT with the 5-HT1A receptor) are mediated by cAMP. To test the ability of compounds described herein to modulate cAMP, a radioimmunoassay (RIA) method was used. Briefly, stably transfected CHO cells were grown in DMEM containing 10% heat inactivated FBS and non-essential amino acids. The cells were plated at a density of 10^6 cells per well in a 96-well plate and incubated for 2 days in a CO2 incubator. On the second day, the medium was replaced with 0.1 ml Krebs and incubated 15 minutes at 37° C. The medium was then replaced with Krebs buffer containing 500 μM isobutylmethylxanthine (IBMX) and incubated for approximately 5 minutes at 37° C. Wells were treated with forskolin (1 μM final concentration) followed immediately by test compound (0.1 and 1 μM for the initial screen) and incubated for an additional 10 minutes at 37° C. The reaction was terminated by removal of the medium and the addition of 0.5 ml ice cold assay buffer (supplied in the RIA kit). Plates were stored at −20° C. prior to assessment of cAMP formation by RIA. The cAMP kit was obtained from Amersham (Piscataway, N.J.) and the RIA was performed as per the kit instructions. In the initial screen, percent inhibition of forskolin stimulated cAMP was measured. […] These compounds behaved as either full agonists or partial agonists. 5-HT, BMY 7378, buspirone, and 8-OH-DPAT were used as reference compounds.
All compounds tested inhibited the forskolin-stimulated increase in […].

[3] = molecular target: T2, serotonin transporter (Rattus norvegicus, UniProt P31652); assay: 3H-paroxetine binding to rat frontal cortical membranes, affinity for the serotonin transporter; details: 3H-paroxetine 0.1 nM, male Sprague Dawley rat frontal cortical membranes; read-out: 5HT Uptake r5HT-T Ki (nM) (Example 18)
T2 construct: frontal cortical membranes prepared from male Sprague Dawley rats; from tissue; host or cells: rat frontal cortex membranes (male Sprague Dawley)
Protocol: A protocol similar to that used by Cheetham et al. (Neuropharmacol. 32:737-743, 1993) was used to determine the affinity of compounds for the serotonin transporter (i.e., by determining the relative ability of a compound to displace ^3H-paroxetine from male rat frontal cortical membranes). Briefly, frontal cortical membranes prepared from male Sprague Dawley rats were incubated with ^3H-paroxetine (0.1 nM) for 60 minutes at 25° C. All tubes also contained either vehicle, test compound (one to eight concentrations), or a saturating concentration of fluoxetine (10 μM) to define […]. All reactions were terminated by the addition of ice cold Tris buffer followed by rapid filtration using a Tom Tech filtration device to separate bound from free ^3H-paroxetine. Bound radioactivity was quantitated using a Wallac 1205 Beta Plate® counter. Nonlinear regression analysis was used to determine IC50 values which were converted to Ki values using the method of Cheng and Prusoff (Biochem. Pharmacol. 22: 3099-3108, 1973); […].
This affinity translates to the blockade of 5-HT uptake, i.e., the ability of a compound increase synaptic 5-HT levels and to act like an SSRI.

[4] = molecular target: T3, Human 5-HT Transporter (Homo sapiens, UniProt P31645); assay: Inhibition of 3H-5-HT uptake by Jar cells possessing the human 5-HT transporter; assay type: cell-based; details: Jar cells treated with staurosporine, read-out: 5HT Uptake h5HT-T IC50 (nM) (Example 20)
T3 construct: endogenous in cells; host or cells: Jar cells (human carcinoma cell line), treated with staurosporine
Protocol: [Staurosporine greatly increases the expression of the 5-HT-Transporter.] On the day of assay, vehicle, excess of fluoxetine, or test compound was added to various wells on the plate. ^3H-5-HT was then aliquoted into all wells and the samples were incubated at 37° C. for 5 minutes. The wells were then washed with ice cold 50 mM Tris HCl (pH 7.4) buffer and aspirated to remove free ^3H-5-HT. 25 μL 0.25 M NaOH was then added to each well to lyse the cells and 75 μL scintillation cocktail (Microscint™ 20) was added prior to quantitation on a Packard TopCount® machine. Tubes with vehicle represent total possible uptake, radioactivity counted in tubes with excess fluoxetine represent nonspecific binding/uptake and were subtracted from the total possible uptake to give total possible specific uptake. This nonspecific binding (usual low in number) was then subtracted from the counts obtained in wells with various test compounds (or different concentrations of a test compound) resulting in uptake in the presence of drug. Specific uptake was then expressed as a percent of control values and was analyzed using nonlinear regression analysis (Prizm) to determine IC50 values. If the compound was active in inhibiting 5-HT uptake, its counts will be close to that obtained with fluoxetine.
This blockade, in vivo, would be expected to result in an increase in extracellular 5-HT concentrations.

T3 sequence (P31645 whole entry): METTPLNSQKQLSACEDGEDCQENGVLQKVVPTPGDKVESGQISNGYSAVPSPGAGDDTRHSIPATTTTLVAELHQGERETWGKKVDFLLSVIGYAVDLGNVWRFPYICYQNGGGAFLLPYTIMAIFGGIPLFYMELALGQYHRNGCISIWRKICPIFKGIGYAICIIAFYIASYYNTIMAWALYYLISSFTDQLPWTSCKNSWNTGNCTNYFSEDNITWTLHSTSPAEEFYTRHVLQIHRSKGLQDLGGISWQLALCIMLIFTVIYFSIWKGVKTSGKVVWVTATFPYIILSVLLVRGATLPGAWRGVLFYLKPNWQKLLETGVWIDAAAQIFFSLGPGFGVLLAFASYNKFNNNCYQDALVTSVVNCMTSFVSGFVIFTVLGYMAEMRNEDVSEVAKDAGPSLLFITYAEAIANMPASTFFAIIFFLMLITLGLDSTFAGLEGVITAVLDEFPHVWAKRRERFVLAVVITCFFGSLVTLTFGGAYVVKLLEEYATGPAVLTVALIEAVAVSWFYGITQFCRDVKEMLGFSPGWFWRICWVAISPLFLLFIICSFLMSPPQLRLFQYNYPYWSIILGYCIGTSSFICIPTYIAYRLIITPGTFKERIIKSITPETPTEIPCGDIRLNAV
T2 sequence (P31652 whole entry): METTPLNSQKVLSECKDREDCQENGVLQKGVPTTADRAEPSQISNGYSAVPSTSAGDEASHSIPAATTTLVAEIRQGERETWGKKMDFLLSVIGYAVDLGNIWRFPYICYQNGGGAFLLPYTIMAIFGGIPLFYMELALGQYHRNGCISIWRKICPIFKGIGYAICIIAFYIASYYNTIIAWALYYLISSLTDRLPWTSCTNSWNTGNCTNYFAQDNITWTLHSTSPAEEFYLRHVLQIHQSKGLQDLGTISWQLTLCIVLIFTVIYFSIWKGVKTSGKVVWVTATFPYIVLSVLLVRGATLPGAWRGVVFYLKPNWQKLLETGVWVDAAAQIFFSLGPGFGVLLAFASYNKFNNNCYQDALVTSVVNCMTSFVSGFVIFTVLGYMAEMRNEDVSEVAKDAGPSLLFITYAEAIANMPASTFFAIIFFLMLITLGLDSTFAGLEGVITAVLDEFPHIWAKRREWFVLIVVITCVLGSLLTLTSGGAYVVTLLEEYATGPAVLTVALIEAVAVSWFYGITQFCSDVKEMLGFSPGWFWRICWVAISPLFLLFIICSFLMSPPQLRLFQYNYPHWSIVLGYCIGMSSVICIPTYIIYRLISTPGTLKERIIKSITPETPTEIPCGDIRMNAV

- Ki [1]: 2.77 nM
- EC50 [2]: 1.43 nM
- Ki [3]: 14.7 nM
- IC50 [4]: 4710 nM
Compound: Cc1ccc2c3c(ccc2n1)OC[C@H](CNCCCN1CCOc2ccc(F)cc21)O3 [Example 11, 3-(6-fluoro-2,3-dihydro-4H-1,4-benzoxazin-4-yl)-N-{[(2S)-8-methyl-2,3-dihydro[1,4]dioxino[2,3-f]quinolin-2-yl]methyl}propan-1-amine]
